Experimental data from patent US8816047B2 (Cure DM Group Holdings, LLC, priority 2007, dated 2014).
Entries after “also recorded” stand apart in the source; their conditions may differ. Like-named read-outs stand apart in the source and are kept apart here. Where a SMILES comes first, the peptide text is derived from it. Bridges are numbered along the chain shown (N, C = ends). Roman numbers before positions name the chains, in order. Where no end group is shown, it is not given here.

Experiments:
human plasma = details: 37° C., up to 60 minutes
[1] = In vitro stability of peptides to proteases in human plasma at 37 C (HPLC/LC-MS); assay type: in vitro ADME; details: for stability to plasma proteases: 1 hr
Experimental: The peptides were incubated in human plasma, at 37° C. Sample incubations were performed over a period of 1 hr. Individual time points of 1, 5, 10, 30, and 60 minutes were used to follow the reactions. Deactivation of plasma proteases at each time point was achieved by heating the samples at 100° C. for 1 min. Following work-up the plasma treated samples were evaluated by reverse phase chromatography in series with at mass spectrometer, HPLC/LC-MS, against control samples.
Plasma Treated with HIP and Optimized HIP peptides were evaluated over 1, 5, 10, 30 and 60 minutes. For each time point 0.70 ml of plasma was pipetted into a 10 ml test tube. To each was added 0.30 ml of a stock solution of HIP or Optimized HIP peptide (1.66 mg/ml) prepared in phosphate buffered saline. The plasma/peptide samples were incubated at 37° C. for each time point followed by heating at 100° C. to inactivate the proteolytic activity of plasma proteases. Following inactivation, the samples were diluted with 1 ml of H2O, centrifuged and the supernatant liquid removed for analysis.
Samples were analyzed on a C-18 reverse phase column (50 mm×2.0 mm) using 0.07% TFA in H2O as buffer A and 0.07% TFA in acetonitrile as buffer B. A linear gradient of 98% A/2% B progressing to 30% A/70% B over 10 min. was used at a flow rate of 0.4 ml/min. Eluant was monitored by UV at a wavelength of 220 nm and by mass spectroscopy. Comparisons of chromatographic profiles of plasma treated peptides (37° C.) against peptide reference samples and plasma controls were used to determine the relative stability of peptide to plasma treatment.
T=0: Plasma (0.7 ml) plus peptide stock solution (0.3 ml), heat 100° C. 1 min. add 1 ml H2O, centrifuge.
Plasma background control: 0.7 ml plasma plus PBS (0.3 ml), heat 100° C. 1 min, add 1 ml H2O, centrifuge.
Peptide reference heat treated: Peptide stock solution (0.3 ml) plus 0.7 ml PBS, heat 100° C. 1 min., add 1 ml H2O.
Peptide reference no heat: Peptide stock solution (0.3 ml) add 0.7 ml PBS plus 1 ml H2O.

[2] = Pharmacokinetics and absolute bioavailability in Sprague Dawley rats, IV and SC 4 mg/kg (LC/MS MS); assay type: in vivo, rat; details: for F: SQ versus IV; for appearance of animals post-dosing: all times post-dosing, each route; for plasma levels: intravenous or subcutaneous; for C0: estimated
Experimental: The absolute bioavailability and pharmacodynamic study was conducted in Sprague Dawley rats following intravenous and subcutaneous dose administration of HIP2 (FIG. 24), Optimized HIP2B and INGAP. The purpose was to determine the absorption, absolute bioavailability and plasma levels of HIP2, Optimized HIP2B and INGAP in male rats following two different routes of administration.
Six Groups of five male Sprague Dawley rats were administered HIP2, HIP2B or INGAP by intravenous and subcutaneous routes as follows in table below.
Ten serial blood plasma samples (0.03 ml each) were collected from a jugular vein catheter from five animals per group at 5, 10, 15, 30 minutes, 45 minutes followed by samples at 1, 2, 3, 8, and 24 hours post-dose. Plasma was collected into tubes containing EDTA. Following collection, samples were kept chilled on cool packs before centrifugation and transfer to pre-labeled microfuge tubes for storage at −70° C. or below.
Rat plasma samples of 200 μl each were added to a micro centrifuge tube containing 1 ml of acetonitrile (0.07% trifluoroacetic acid, TFA) and stirred with a vortex mixer for 1 min. followed by centrifugation to remove precipitated plasma proteins. The supernatant solution was removed and evaporated, using a Speed Vac, to dryness. To the micro centrifuge tube containing the dry pellet was added 200 μl of 20:80 acetonitrile:water (containing 0.07% TFA). The sample was centrifuged to remove any insoluble material and the supernatant solution transferred to analytical vials for LC/MS MS analysis. The mass spectrometer was calibrated to detect the most abundant daughter ion/ions observed for each of the respective reference samples of HIP2B (M=286.0), HIP2 (M=287.1) and INGAP (M=212.2, 356.1, 373.9). Optimized HIP2B, HIP2 and INGAP plasma samples were analyzed on a C-18 reverse phase column (50 mm×2.0 mm, Varian Pursuit XRS3) using 0.07% TFA in H2O as buffer A and 0.07% TFA in acetonitrile as buffer B. A linear gradient of 98% A/2% B progressing to 100% B over 9 minutes was used at a flow rate of 0.4 ml/min.
The following plasma controls were treated as described above and used to establish a standard concentration curve: • 1. Blank plasma as a background control • 2. Five standard plasma samples containing 6.7×10^4, 6.7×10^3, 6.7×10^2, […] ng/ml of HIP2B, HIP2 and INGAP

diabetic mice = assay: Streptozocin diabetic mouse model, 28 days twice-daily IP dosing (Example 2); assay type: in vivo
Experimental: In Vivo Studies. HIP3, HIP1 and HIP2 has been the subject of in vivo studies in mice. […] The subject number was selected to yield a sufficient number of diabetic animals for the study and animals were randomly assigned to study groups. All animals were dosed via intraperitoneal injections twice daily (am and pm) for 28 consecutive days. The timing of dose administration remained consistent (±2 hours) during the dosing phase.
Mice were injected intraperitoneally with streptozocin at 40 mg/kg in citrate buffer, pH 4.5, on 5 consecutive days in an attempt to render them diabetic. […] If the blood glucose level in any animal rose to above 400 mg/dL, the animal was treated with insulin. Every 3 days, at the same time each day, a nick was made on the tail and a drop of blood was collected. Glucose measurements were determined using a glucose meter. Group assignments and dose levels were as follows in Table 1:
Study endpoints included the following: changes in glucose; changes in insulin requirements; and histology of post-mortem pancreata.

[3] = HIP2B stability study in distilled water by LC/MS; assay type: physicochemical; details: 4-8° C. and 25° C., 1, 2 and 3 weeks
Experimental: Experimental Procedure. The study was initiated with two groups of eight samples each. One group is maintained at 4-8° C. and the other at 25° C., as part of a 2 month stability study. Each sample contains 4.57 milligrams of HIP2B in 5 micro liters of distilled water. One sample from each temperature group is removed and placed in a minus 20° C. freezer, for storage, every seven days until an LC/MS analysis can be performed. A series of samples were evaluated after 1, 2, and 3 weeks in the stability study against a control sample of HIP2B which had been prepared at the initiation of the study and stored at −20° C. After three weeks of stability testing at each of the temperatures described above, all of the samples were unchanged as determined by LC/MS and therefore deemed stable at 1, 2, and three weeks.

[4] = rat, in vivo, SQ, rat, read-out: AUC(0-∝)
[5] = rat, in vivo, SQ, rat, read-out: T1/2 (converted)
[6] = rat, in vivo, iv, rat, read-out: AUC(0-∝)
[7] = rat, in vivo, iv, rat, read-out: T1/2 (converted)

## (Ac-IGLHDPTQGTEPNGC-NH2)2
Human plasma
  not cleaved: stable to plasma proteases for at least 1 hr

## Ac-Ile-Gly-Leu-His-Asp-Pro-Thr-Gln-Gly-Thr-Glu-Pro-Asn-Gly-Cys(PEG)-NH2 [HIP2B Cys-PEG]
[1]; human plasma 37° C.
  stability to plasma proteases: stable to plasma proteases for up to 1 hr

## IGLHDPSHGTLPNGS [INGAP, Ile-Gly-Leu-His-Asp-Pro-Ser-His-Gly-Thr-Leu-Pro-Asn-Gly-Ser, reference compound]
[2]; IV, rat
  C1 h: 0 ng/mL
[2]; rat
  F: 0.00
  plasma levels: below the lower limit of quantitation; also recorded: undetectable at any time point
[2]; SQ, rat
  C1 h: 0 ng/mL
[2]
  appearance of animals post-dosing: appeared normal
[2]; male, Sprague-Dawley, plasma, IV, rat
  C0: 18800 ng/mL
[2]; male, Sprague-Dawley, rat, plasma, iv, rat, footnote *extrapolated, read-out: AUC(0-∝), extrapolated
  AUC: 440 ng·h/mL
[2]; male, Sprague-Dawley, rat, plasma, iv, rat, read-out: T1/2 (converted)
  half-life: < 1.5 min
[2]; male, Sprague-Dawley, rat, plasma, subcutaneous, SQ, rat, read-out: T1/2 (converted)
  half-life: < 1.5 min

## Ac-IGLHDPTQGTEPNGE-NH2
Human plasma
  not cleaved: completely stable up to 1 hr of plasma incubation

## Ac-IGLHDPTQGTEPNG-NH2
Human plasma
  not cleaved: completely stable to plasma proteases after 1 hr of incubation at 37 °C

## IGLHDPTQGTEPNG [HIP2, Ile-Gly-Leu-His-Asp-Pro-Thr-Gln-Gly-Thr-Glu-Pro-Asn-Gly]
[1]; human plasma 37° C., 1 min
  new component (proteolysis product): 5%
[1]; human plasma 37° C., 30 min
  new component (proteolysis product): ≈ 50%
[1]; human plasma 37° C., 60 min
  new component (proteolysis product): ≈ 70%
[2]; IV, rat
  C1 h: 0 ng/mL
[2]; rat
  F: 0.01
  plasma levels: very low levels of HIP2 were observed only at five minutes post dosage; also recorded: Very low levels of HIP2 were detected at 5 minutes; also recorded: observed only at the 5 minute time point
[2]; SQ, rat
  C1 h: 0 ng/mL
[2]
  appearance of animals post-dosing: appeared normal
[2]; in vivo, IV, rat
  Cmax: 29 ng/mL
  Tmax: 4.98 min
  C0: 18800 ng/mL
[2]; in vivo, SQ, rat
  Tmax: 4.98 min
[2]; in vivo, SQ, rat, n = 5
  Cmax: 32 ng/mL
[2]; [4]
  AUC: 2.7 ng·h/mL
[2]; [5]
  half-life: 1.2 min
[2]; [6]
  AUC: 442 ng·h/mL
[2]; [7]
  half-life: 1.2 min

## WIGLHDPTQGTEPNG [HIP1]
Diabetic mice; 250 μg IP twice daily for 28 days, STZ diabetic mice
  lower mean glucose versus control: 14.7%
Diabetic mice; introduced into diabetic mice
  differentiation of progenitor cells within the pancreas into new islet structures: stimulate differentiation of progenitor cells within the pancreas into new islet structures

## Ac-IGLHDPTQGTEPNGE-NH2 [HIP3B, Ac-Ile-Gly-Leu-His-Asp-Pro-Thr-Gln-Gly-Thr-Glu-Pro-Asn-Gly-Glu-NH2]
[1]; human plasma 37° C.
  stability to plasma proteases: completely stable

## CC[C@H](C)[C@H](NC(C)=O)C(=O)NCC(=O)N[C@@H](CC(C)C)C(=O)N[C@@H](Cc1c[nH]cn1)C(=O)N[C@@H](CC(=O)O)C(=O)N1CCC[C@H]1C(=O)N[C@H](C(=O)N[C@@H](CCC(N)=O)C(=O)NCC(=O)N[C@H](C(=O)N[C@@H](CCC(=O)O)C(=O)N1CCC[C@H]1C(=O)N[C@@H](CC(N)=O)C(=O)NCC(=O)N[C@@H](CSSC[C@H](NC(=O)CNC(=O)[C@H](CC(N)=O)NC(=O)[C@@H]1CCCN1C(=O)[C@H](CCC(=O)O)NC(=O)[C@@H](NC(=O)CNC(=O)[C@H](CCC(N)=O)NC(=O)[C@@H](NC(=O)[C@@H]1CCCN1C(=O)[C@H](CC(=O)O)NC(=O)[C@H](Cc1c[nH]cn1)NC(=O)[C@H](CC(C)C)NC(=O)CNC(=O)[C@@H](NC(C)=O)[C@@H](C)CC)[C@@H](C)O)[C@@H](C)O)C(N)=O)C(N)=O)[C@@H](C)O)[C@@H](C)O [HIP2B Cys-Dimer, (Ac-Ile-Gly-Leu-His-Asp-Pro-Thr-Gln-Gly-Thr-Glu-Pro-Asn-Gly-Cys-NH2)2] (I: Ac-IGLHDPTQGTEPNGC-NH2 / II: Ac-IGLHDPTQGTEPNGC-NH2; disulfide I:15-II:15)
[1]; human plasma 37° C.
  stability to plasma proteases: stable to plasma proteases for at least 1 hr

## Ac-IGLHDPTQGTEPNGC(PEG)-NH2
Human plasma
  not cleaved: stable to plasma proteases for up to 1 hr

## IGLHDPTQGTEPNGE [HIP3, Ile-Gly-Leu-His-Asp-Pro-Thr-Gln-Gly-Thr-Glu-Pro-Asn-Gly-Glu]
[1]; human plasma 37° C., after 60 min, read-out: starting concentration of peptide remaining
  remaining at 1 h, 0.498 mg/ml: ~50%

## Ac-IGLHDPTQGTEPNG-NH2 [HIP2B, Ac-Ile-Gly-Leu-His-Asp-Pro-Thr-Gln-Gly-Thr-Glu-Pro-Asn-Gly-NH2]
[3]
  stability by LC/MS: unchanged
[1]; human plasma 37° C.
  stability to plasma proteases: completely stable
[1]; serum at 37 degrees, relative to HIP 2
  stability in vitro in serum: significantly more a more stable
[2]; IV, rat
  AUC(0-∝): 1614.3 ng·h/mL
  C1 h: 114 ng/mL
[2]; rat
  F: 0.87
  plasma levels: significantly higher relative to HIP2 or INGAP
[2]
  appearance of animals post-dosing: appeared normal
[2]; in vivo, IV, rat
  Cmax: 8240 ng/mL
  Tmax: 4.98 min
  C0: 18800 ng/mL
[2]; in vivo, IV, rat, read-out: apparent mean plasma clearance (converted)
  clearance: 31.7 mL/min/kg
[2]; in vivo, IV, rat, read-out: apparent mean volume of distribution
  Vd: 0.48 L/kg
[2]; in vivo, SQ, rat
  Tmax: 10 min
[2]; in vivo, SQ, rat, n = 5
  Cmax: 2740 ng/mL
[2]; in vivo, sc, rat, read-out: absolute subcutaneous bioavailability
  bioavailability: 87%
[2]; in vivo, sc, subcutaneous, rat, read-out: apparent mean Cl/F (converted)
  CL/F: 35 mL/min/kg
[2]; intravenous, rat
  time by which concentrations were undetectable: ≤ 45 min
[2]; male, Sprague Dawley, plasma, sc, SQ, rat, read-out: C1 h
  level at 1 h: 612 ng/mL
[2]; male, Sprague Dawley, plasma, sc, subcutaneous, rat, read-out: apparent mean V2/F
  Vd/F: 1 L/kg
[2]; [4]
  AUC: 1930 ng·h/mL
[2]; [5]
  half-life: 20.4 min
[2]; [6]
  AUC: 2230 ng·h/mL
[2]; [7]
  half-life: 11.4 min
[2]; rat, in vivo, iv, rat, read-out: terminal phase plasma half-life
  half-life: 11 min
[2]; rat, in vivo, sc, subcutaneous, rat, read-out: terminal phase plasma half-life
  half-life: 20 min

## IGLHDPTQGTEPNG
Human plasma
  cleaved bond: isoleucine-G, major, 1 min; also recorded: L-H, minor
